IC50 data for 19 compounds are collected here from US8258158B2 (Hoffmann-La Roche Inc., priority 2009, dated 2012).

One may read the IC50 as the point on the concentration scale where inhibition reaches its midpoint.

This test has as its target T1, human HSL (Homo sapiens, UniProt Q05469).
T1 construct: overlapping PCR to generate a full length human HSL ORF with a 3′-His6 tag; His6 (C); made in house; host or cells: High 5 insect cells (baculovirus, pFast-BAC)
T1 sequence (Q05469 1-1076): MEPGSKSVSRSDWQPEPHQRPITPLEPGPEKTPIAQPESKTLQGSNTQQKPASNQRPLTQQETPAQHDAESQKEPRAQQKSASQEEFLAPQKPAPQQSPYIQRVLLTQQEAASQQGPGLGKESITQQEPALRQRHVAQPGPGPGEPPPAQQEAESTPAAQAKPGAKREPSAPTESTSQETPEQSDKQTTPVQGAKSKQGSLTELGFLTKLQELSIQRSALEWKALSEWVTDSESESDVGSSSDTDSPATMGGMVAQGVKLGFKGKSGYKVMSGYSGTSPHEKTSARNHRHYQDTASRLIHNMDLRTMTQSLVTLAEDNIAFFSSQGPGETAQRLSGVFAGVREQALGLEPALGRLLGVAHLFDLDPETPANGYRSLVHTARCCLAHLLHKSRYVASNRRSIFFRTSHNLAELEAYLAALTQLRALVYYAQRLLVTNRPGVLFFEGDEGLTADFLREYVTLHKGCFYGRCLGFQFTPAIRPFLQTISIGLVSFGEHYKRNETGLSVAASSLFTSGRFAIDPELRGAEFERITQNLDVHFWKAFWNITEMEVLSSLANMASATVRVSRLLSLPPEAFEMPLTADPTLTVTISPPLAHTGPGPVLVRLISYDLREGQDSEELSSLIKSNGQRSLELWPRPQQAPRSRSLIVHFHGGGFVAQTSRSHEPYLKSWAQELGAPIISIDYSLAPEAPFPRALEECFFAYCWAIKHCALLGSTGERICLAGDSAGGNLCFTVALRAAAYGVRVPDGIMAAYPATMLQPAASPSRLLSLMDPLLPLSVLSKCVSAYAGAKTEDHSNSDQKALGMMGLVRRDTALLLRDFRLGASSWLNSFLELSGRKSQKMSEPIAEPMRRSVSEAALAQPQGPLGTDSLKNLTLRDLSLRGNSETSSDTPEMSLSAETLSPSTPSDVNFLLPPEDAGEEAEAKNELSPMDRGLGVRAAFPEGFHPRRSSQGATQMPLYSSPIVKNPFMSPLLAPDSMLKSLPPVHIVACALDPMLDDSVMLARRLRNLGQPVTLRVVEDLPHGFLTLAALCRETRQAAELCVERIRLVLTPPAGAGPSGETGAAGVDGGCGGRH
In words: Human hormone-sensitive lipase (HSL) enzyme inhibition assay (colorimetric, DMPT substrate). In kind it is biochemical. Conditions: human full length HSL-His6; 2,3-dimercapto-1-propanol tributyrate substrate; 37° C., 20 minutes; read-out: HSL hum IC50. On the procedure: Production of Human Full Length Hormone Sensitive Lipase-His^6:
1) Cloning: cDNA was prepared from commercial human brain polyA+ RNA and used as a template in overlapping PCR to generate a full length human HSL ORF with a 3′-His6 tag. This full length insert was cloned into the pFast-BAC vector and the DNA-sequence of several single clones was verified. DNA from a correct full length clone with the 3′His6 tag was used to transform the E. coli strain DH10BAC. Resulting bacmid DNA was used to generate a titered baculovirus stock for protein generation. The sequence of the encoded HSL conforms to Swissprot entry Q05469, with the additional C-terminal His6-tag.
2) Protein purification: Culture: 5.5 L, High 5 cells expressing human full length HSL-His^6, 48 hr., containing 25 μM E-64. Cell count: […], 90% viable. Cells were thawed. On ice, cells were suspended in Base Buffer containing 10% glycerol, 25 mM Tris-Cl, 300 mM NaCl, 10 mM imidazole, 10 mM 2-mercaptoethanol, 2 μg pepstatin/ml, 2 μg leupeptin/ml, 2 μg antipain/ml, pH 8.0 at 4° C. in a final volume of 475 ml with 3.75×10^7 cells/ml. […] was done at 3×30 sec., Lubrol PX was added to 0.2% final concentration followed by stirring for 15 min. at 4° C. and centrifugation at 25 k×g, 60 min., 4° C. Soluble proteins were mixed with 60 ml of pre-washed and equilibrated Ni-NTA Agarose (Qiagen 30210) followed by tumbling end-over-end, 45 min., 4° C., centrifugation 1000 rpm 5 min and letting resin settle 5 min. Supernatant was removed, the resin washed in the centrifuge vessel using 5 volumes of Base Buffer containing 0.2% Lubrol PX. Centrifugation was done again, then the supernatant discarded. The resin was poured onto a 0.8 μm membrane in a disposable filter unit (Nalge 450-0080), and washed with 5 volumes of Base Buffer containing 0.2% Lubrol PX. It was then washed with 30 volumes of Base Buffer containing 60 mM imidazole pH 7.5 at 4° C. The protein was eluated with 5 volumes of 25 mM Tris-Cl, 300 mM NaCl, 200 mM imidazole, 10 mM 2-mercaptoethanol, pH 7.5 at 4° C. by tumbling resin with buffer end-over-end, 30 min., 4° C. The resin was captured on a 0.2 μm membrane disposable filter unit (Millipore SCGP U02 RE) and the eluate collected in the reservoir. The eluate was concentrated using a 30 k MWCO centrifugal filter device (Sartorius Vivascience Vivacell 100, VC1022), to 20 ml. It was then dialyzed overnight at 4° C., two times against 2 L of 10% glycerol, 25 mM Tris-Cl, 300 mM NaCl, 0.2 mM EDTA, 0.2 mM DTT, pH 7.5 at 4° C. The protein was filtered using a 0.22 μm disposable filter unit (Millipore SCGP00525). The protein concentration was calculated from absorbance at 280 nm, using 280=0.67 cm-1 mg-1. Yield was 235 mg, total. The protein was stored at −80° C.
Human Hormone-Sensitive Lipase (HSL) Enzyme Inhibition Assay:
HSL enzyme activity was measured by a colorimetric assay using 2,3-dimercapto-1-propanol tributyrate (Aldrich, St. Louis, Mo.) as a substrate. Typically, 1.5 mM 2,3-dimercapto-1-propanol tributyrate (DMPT) in 100 mM MOPS, pH 7.2, 0.2 mg/ml fatty acid-free BSA was prepared by sonication at 4° C. to homogenous suspension. Test compounds (2 mM stock in DMSO) were diluted 3 fold in series in DMSO. Compound solutions were diluted 24 fold in 1.5 mM DMPT containing solution and 18 ul per well was added to 384-well microplates (Corning Costar). Twelve microliters per well of human HSL (15 ug/ml) was added and the reaction mixture was incubated at 37° C. for 20 minutes. Six microliters of 12 mM dithio-bis-(2-nitrobenzoic acid) (DTNB) in DMSO plus 1.2% SDS and 0.6% Triton X-100 were added and the mixture was incubated at room temperature for 15 minutes. Product production was monitored by reading absorbance at 405 nm on an Envision Reader (PerkinElmer Life and Analytical Sciences, Shelton, Conn.).

In the case of `CC(Oc1ccc(NC(=O)C2CCN(C(=O)c3ccccc3Cl)CC2)cc1)C(F)(F)F` (racemic) [Example 44, (rac)-1-(2-Chloro-benzoyl)-piperidine-4-carboxylic acid [4-(2,2,2-trifluoro-1-methyl-ethoxy)-phenyl]-amide], the IC50 amounted to 620 nM.

As to `Cc1ccc(S(=O)(=O)N2CCC(C(=O)Nc3ccc(OC(CO)C(F)(F)F)cc3)CC2)cc1` (racemic) [Example 45, (rac)-1-(Toluene-4-sulfonyl)-piperidine-4-carboxylic acid [4-(2,2,2-trifluoro-1-hydroxymethyl-ethoxy)-phenyl]-amide], the IC50 amounted to 150 nM.

Consider `CC1(C(=O)Nc2ccc(OC(C)(C)C(F)(F)F)cc2)CCN(S(=O)(=O)c2ccccc2)CC1` (racemic) [Example 50, (rac)-1-Benzenesulfonyl-4-methyl-piperidine-4-carboxylic acid [4-(2,2,2-trifluoro-1,1-dimethyl-ethoxy)-phenyl]-amide], for which the 50% inhibitory concentration (IC50) was found to be 810 nM.

For `Cc1ccc(S(=O)(=O)N2CCC(C(=O)Nc3ccc(OCC(O)C(F)(F)F)cc3)CC2)cc1` (racemic) [Example 52, (rac)-1-(Toluene-4-sulfonyl)-piperidine-4-carboxylic acid [4-(3,3,3-trifluoro-2-hydroxy-propoxy)-phenyl]-amide], the 50% inhibitory concentration (IC50) is 860 nM.

For `COC(COc1ccc(NC(=O)C2CCN(S(=O)(=O)c3ccc(C)cc3)CC2)cc1)C(F)(F)F` (racemic) [Example 53, (rac)-1-(Toluene-4-sulfonyl)-piperidine-4-carboxylic acid [4-(3,3,3-trifluoro-2-methoxy-propoxy)-phenyl]-amide], the IC50 was determined as 660 nM.

As to `COCC(Oc1ccc(NC(=O)C2CCN(S(=O)(=O)c3ccc(C)cc3)CC2)cc1)C(F)(F)F` (racemic) [Example 54, (rac)-1-(Toluene-4-sulfonyl)-piperidine-4-carboxylic acid [4-(2,2,2-trifluoro-1-methoxymethyl-ethoxy)-phenyl]-amide], the IC50 turned out to be 80 nM.

In the case of `Cc1ccc(S(=O)(=O)N2CCC(CO)(C(=O)Nc3ccc(OC(C)C(F)(F)F)cc3)CC2)cc1` (racemic) [Example 55, (rac)-4-Hydroxymethyl-1-(toluene-4-sulfonyl)-piperidine-4-carboxylic acid [4-(2,2,2-trifluoro-1-methyl-ethoxy)-phenyl]-amide], the concentration for half-maximal inhibition (IC50) worked out at 1420 nM.

On to `Cc1ccc(S(=O)(=O)N2CCC(C(=O)Nc3ccc(OC(F)(F)F)cc3)CC2)cc1` [Example 1, 1-(Toluene-4-sulfonyl)-piperidine-4-carboxylic acid (4-trifluoromethoxy-phenyl)-amide], for which the IC50 came to 80 nM.

As for `CC(C)c1ccc(NC(=O)C2CCN(S(=O)(=O)c3ccccc3)CC2)cn1` [Example 2, 1-Benzenesulfonyl-piperidine-4-carboxylic acid (6-isopropyl-pyridin-3-yl)-amide], the half-inhibitory concentration (IC50) was found to be 240 nM.

Consider `COc1ccc(NC(=O)C2CCN(S(=O)(=O)c3ccccc3)CC2)nn1` [Example 3, 1-Benzenesulfonyl-piperidine-4-carboxylic acid (6-methoxy-pyridazin-3-yl)-amide], for which the half-maximal inhibitory concentration (IC50) came to 12000 nM.

As to `Cc1ccc(S(=O)(=O)N2CCC(C(=O)Nc3ccc(OC(C)C)cc3)CC2)cc1` [Example 7, 1-(Toluene-4-sulfonyl)-piperidine-4-carboxylic acid (4-isopropoxy-phenyl)-amide], the half-inhibitory concentration (IC50) came to 70 nM.

`CC(C)c1ccc(NC(=O)C2CCN(C(=O)CC3CC3)CC2)cc1` [Example 8, 1-(2-Cyclopropyl-acetyl)-piperidine-4-carboxylic acid (4-isopropyl-phenyl)-amide]: the IC50 came out at 800 nM.

Take `CC(C)c1ccc(NC(=O)C2CCN(C(=O)CCC3CC3)CC2)cc1` [Example 9, 1-(3-Cyclopropyl-propionyl)-piperidine-4-carboxylic acid (4-isopropyl-phenyl)-amide]: the concentration for half-maximal inhibition (IC50) was 350 nM.

Consider `CC(C)c1ccc(NC(=O)C2CCN(C(=O)CC(C)(C)C)CC2)cc1` [Example 10], for which the concentration for half-maximal inhibition (IC50) turned out to be 200 nM.

Turning to `COCCCC1(C(=O)Nc2ccc(OC(C)C)cc2)CCN(S(=O)(=O)c2ccccc2)CC1` [Example 12, 1-Benzenesulfonyl-4-(3-methoxy-propyl)-piperidine-4-carboxylic acid (4-isopropoxy-phenyl)-amide], the IC50 was 920 nM.

With `Cc1ccc(S(=O)(=O)N2CCC(C(=O)Nc3ccc(OC(F)F)cc3)CC2)cc1` [Example 13, 1-(Toluene-4-sulfonyl)-piperidine-4-carboxylic acid (4-difluoromethoxy-phenyl)-amide], the IC50 is 120 nM.

For `Cc1ccc(S(=O)(=O)N2CCC(C(=O)Nc3ccc(OCC(F)(F)F)cc3)CC2)cc1` [Example 14, 1-(Toluene-4-sulfonyl)-piperidine-4-carboxylic acid [4-(2,2,2-trifluoro-ethoxy)-phenyl]-amide], the concentration for half-maximal inhibition (IC50) amounted to 160 nM.

On to `Cc1ccc(S(=O)(=O)N2CCC(C(=O)Nc3ccc(OC(C)C)cc3F)CC2)cc1` [Example 15, 1-(Toluene-4-sulfonyl)-piperidine-4-carboxylic acid (2-fluoro-4-isopropoxy-phenyl)-amide], for which the half-maximal inhibitory concentration (IC50) amounted to 470 nM.

For the compound `Cc1ccc(S(=O)(=O)N2CCC(C(=O)N(C)c3ccc(OC(F)(F)F)cc3)CC2)cc1` [Example 16, 1-(Toluene-4-sulfonyl)-piperidine-4-carboxylic acid methyl-(4-trifluoromethoxy-phenyl)-amide], the IC50 was found to be 40 nM.
